Source: patent US20130216666A1, “CASHEW NUT SHELL LIQUID WITH IMPROVED STABILITY” (IDEMITSU KOSAN CO., LTD., priority 2010, published 2013)
Like-named read-outs stand apart in the source and are kept apart here.

Assays:
[1] = 80° C.
Protocol: The glycine was prepared as a 10% aqueous solution for the addition.
Samples were taken from the beakers after 6 days and analyzed for composition by HPLC.

[2] = Inhibition of decarboxylation reaction when organic acid chelating agent was added (HPLC); type: physicochemical; conditions: 80° C.
[3] = 80° C.; for inhibition of the decarboxylation: a day
Protocol: The EDTA was prepared as a 10% aqueous solution for the addition.
Samples were taken from the beakers after a day and analyzed for composition by HPLC.

[4] = 1% by weight in unheated CNSL, Day 0
[5] = 1% by weight in unheated CNSL, Day 6
[6] = 10% by weight in unheated CNSL, Day 0
[7] = 10% by weight in unheated CNSL, Day 6
[8] = 2% by weight in unheated CNSL, Day 0
[9] = 2% by weight in unheated CNSL, Day 6
[10] = 1% by weight in unheated CNSL, Day 1
[11] = 5% by weight in unheated CNSL, Day 0
[12] = 5% by weight in unheated CNSL, Day 1

## NCC(=O)O [Glycine, glycine]
[1]; [4]
  Anacardic Acid 15:1 Composition (%): 40.00%
  Anacardic Acid 15:1 concentration: 346.59 ppm
  Anacardic Acid 15:2 Composition (%): 13.66%
  Anacardic Acid 15:2 concentration: 118.36 ppm
  Anacardic Acid 15:3 Composition (%): 32.88%
  Anacardic Acid 15:3 concentration: 284.89 ppm
  Cardanol 15:1 Composition (%): 5.65%
  Cardanol 15:1 concentration: 48.94 ppm
  Cardanol 15:2 Composition (%): 2.42%
  Cardanol 15:2 concentration: 20.93 ppm
  Cardanol 15:3 Composition (%): 5.40%
  Cardanol 15:3 concentration: 46.76 ppm
[1]; [5]
  Anacardic Acid 15:1 Composition (%): 23.47%
  Anacardic Acid 15:1 concentration: 78.82 ppm
  Anacardic Acid 15:2 Composition (%): 8.29%
  Anacardic Acid 15:2 concentration: 27.85 ppm
  Anacardic Acid 15:3 Composition (%): 18.80%
  Anacardic Acid 15:3 concentration: 63.14 ppm
  Cardanol 15:1 Composition (%): 21.95%
  Cardanol 15:1 concentration: 73.71 ppm
  Cardanol 15:2 Composition (%): 7.93%
  Cardanol 15:2 concentration: 26.64 ppm
  Cardanol 15:3 Composition (%): 19.54%
  Cardanol 15:3 concentration: 65.62 ppm
[1]; 1 and 10% by weight, 6 days
  inhibition of the decarboxylation: subtle inhibition
[1]; [6]
  Anacardic Acid 15:1 Composition (%): 40.00%
  Anacardic Acid 15:1 concentration: 346.59 ppm
  Anacardic Acid 15:2 Composition (%): 13.66%
  Anacardic Acid 15:2 concentration: 118.36 ppm
  Anacardic Acid 15:3 Composition (%): 32.88%
  Anacardic Acid 15:3 concentration: 284.89 ppm
  Cardanol 15:1 Composition (%): 5.65%
  Cardanol 15:1 concentration: 48.94 ppm
  Cardanol 15:2 Composition (%): 2.42%
  Cardanol 15:2 concentration: 20.93 ppm
  Cardanol 15:3 Composition (%): 5.40%
  Cardanol 15:3 concentration: 46.76 ppm
[1]; [7]
  Anacardic Acid 15:1 Composition (%): 28.28%
  Anacardic Acid 15:1 concentration: 94.58 ppm
  Anacardic Acid 15:2 Composition (%): 9.99%
  Anacardic Acid 15:2 concentration: 33.42 ppm
  Anacardic Acid 15:3 Composition (%): 22.66%
  Anacardic Acid 15:3 concentration: 75.77 ppm
  Cardanol 15:1 Composition (%): 17.35%
  Cardanol 15:1 concentration: 58.02 ppm
  Cardanol 15:2 Composition (%): 6.27%
  Cardanol 15:2 concentration: 20.97 ppm
  Cardanol 15:3 Composition (%): 15.45%
  Cardanol 15:3 concentration: 51.65 ppm

## O=C(O)C(O)C(O)C(=O)O (stereo not drawn) [Tartaric Acid, tartaric acid]
[2]; [8]
  Anacardic Acid 15:1 Composition (%): 42.00%
  Anacardic Acid 15:1 concentration: 351.16 ppm
  Anacardic Acid 15:2 Composition (%): 13.27%
  Anacardic Acid 15:2 concentration: 110.99 ppm
  Anacardic Acid 15:3 Composition (%): 31.29%
  Anacardic Acid 15:3 concentration: 261.63 ppm
  Cardanol 15:1 Composition (%): 5.69%
  Cardanol 15:1 concentration: 47.57 ppm
  Cardanol 15:2 Composition (%): 2.50%
  Cardanol 15:2 concentration: 20.90 ppm
  Cardanol 15:3 Composition (%): 5.25%
  Cardanol 15:3 concentration: 43.86 ppm
[2]; [9]
  Anacardic Acid 15:1 Composition (%): 30.33%
  Anacardic Acid 15:1 concentration: 272.03 ppm
  Anacardic Acid 15:2 Composition (%): 10.57%
  Anacardic Acid 15:2 concentration: 94.78 ppm
  Anacardic Acid 15:3 Composition (%): 24.25%
  Anacardic Acid 15:3 concentration: 217.48 ppm
  Cardanol 15:1 Composition (%): 15.59%
  Cardanol 15:1 concentration: 139.84 ppm
  Cardanol 15:2 Composition (%): 5.66%
  Cardanol 15:2 concentration: 50.74 ppm
  Cardanol 15:3 Composition (%): 13.62%
  Cardanol 15:3 concentration: 122.16 ppm
[2]; [6]
  Anacardic Acid 15:1 Composition (%): 39.70%
  Anacardic Acid 15:1 concentration: 250.76 ppm
  Anacardic Acid 15:2 Composition (%): 14.24%
  Anacardic Acid 15:2 concentration: 89.95 ppm
  Anacardic Acid 15:3 Composition (%): 32.59%
  Anacardic Acid 15:3 concentration: 205.85 ppm
  Cardanol 15:1 Composition (%): 5.45%
  Cardanol 15:1 concentration: 34.40 ppm
  Cardanol 15:2 Composition (%): 2.70%
  Cardanol 15:2 concentration: 17.07 ppm
  Cardanol 15:3 Composition (%): 5.31%
  Cardanol 15:3 concentration: 33.53 ppm
[2]; [7]
  Anacardic Acid 15:1 Composition (%): 39.12%
  Anacardic Acid 15:1 concentration: 267.36 ppm
  Anacardic Acid 15:2 Composition (%): 13.52%
  Anacardic Acid 15:2 concentration: 92.36 ppm
  Anacardic Acid 15:3 Composition (%): 31.14%
  Anacardic Acid 15:3 concentration: 212.78 ppm
  Cardanol 15:1 Composition (%): 6.81%
  Cardanol 15:1 concentration: 46.56 ppm
  Cardanol 15:2 Composition (%): 3.24%
  Cardanol 15:2 concentration: 22.13 ppm
  Cardanol 15:3 Composition (%): 6.17%
  Cardanol 15:3 concentration: 42.19 ppm

## O=C(O)CC(O)C(=O)O (stereo not drawn) [Malic Acid, malic acid]
[2]; [8]
  Anacardic Acid 15:1 Composition (%): 39.93%
  Anacardic Acid 15:1 concentration: 321.20 ppm
  Anacardic Acid 15:2 Composition (%): 14.22%
  Anacardic Acid 15:2 concentration: 114.37 ppm
  Anacardic Acid 15:3 Composition (%): 33.03%
  Anacardic Acid 15:3 concentration: 265.67 ppm
  Cardanol 15:1 Composition (%): 5.30%
  Cardanol 15:1 concentration: 42.62 ppm
  Cardanol 15:2 Composition (%): 2.27%
  Cardanol 15:2 concentration: 18.28 ppm
  Cardanol 15:3 Composition (%): 5.26%
  Cardanol 15:3 concentration: 42.29 ppm
[2]; [9]
  Anacardic Acid 15:1 Composition (%): 30.38%
  Anacardic Acid 15:1 concentration: 258.72 ppm
  Anacardic Acid 15:2 Composition (%): 10.45%
  Anacardic Acid 15:2 concentration: 88.98 ppm
  Anacardic Acid 15:3 Composition (%): 24.29%
  Anacardic Acid 15:3 concentration: 206.87 ppm
  Cardanol 15:1 Composition (%): 15.35%
  Cardanol 15:1 concentration: 130.72 ppm
  Cardanol 15:2 Composition (%): 5.81%
  Cardanol 15:2 concentration: 49.51 ppm
  Cardanol 15:3 Composition (%): 13.71%
  Cardanol 15:3 concentration: 116.77 ppm
[2]; [6]
  Anacardic Acid 15:1 Composition (%): 39.28%
  Anacardic Acid 15:1 concentration: 270.21 ppm
  Anacardic Acid 15:2 Composition (%): 14.28%
  Anacardic Acid 15:2 concentration: 98.21 ppm
  Anacardic Acid 15:3 Composition (%): 33.24%
  Anacardic Acid 15:3 concentration: 228.68 ppm
  Cardanol 15:1 Composition (%): 5.47%
  Cardanol 15:1 concentration: 37.65 ppm
  Cardanol 15:2 Composition (%): 2.39%
  Cardanol 15:2 concentration: 16.44 ppm
  Cardanol 15:3 Composition (%): 5.33%
  Cardanol 15:3 concentration: 36.70 ppm
[2]; [7]
  Anacardic Acid 15:1 Composition (%): 37.43%
  Anacardic Acid 15:1 concentration: 229.25 ppm
  Anacardic Acid 15:2 Composition (%): 13.73%
  Anacardic Acid 15:2 concentration: 84.08 ppm
  Anacardic Acid 15:3 Composition (%): 31.28%
  Anacardic Acid 15:3 concentration: 191.59 ppm
  Cardanol 15:1 Composition (%): 7.28%
  Cardanol 15:1 concentration: 44.57 ppm
  Cardanol 15:2 Composition (%): 3.41%
  Cardanol 15:2 concentration: 20.90 ppm
  Cardanol 15:3 Composition (%): 6.87%
  Cardanol 15:3 concentration: 42.08 ppm

## O=C(O)CN(CCN(CC(=O)O)CC(=O)O)CC(=O)O [EDTA, ethylenediamine tetraacetic acid]
[3]; [4]
  Anacardic Acid 15:1 Composition (%): 35.11%
  Anacardic Acid 15:1 concentration: 107.38 ppm
  Anacardic Acid 15:2 Composition (%): 14.05%
  Anacardic Acid 15:2 concentration: 42.98 ppm
  Anacardic Acid 15:3 Composition (%): 33.26%
  Anacardic Acid 15:3 concentration: 101.71 ppm
  Cardanol 15:1 Composition (%): 7.60%
  Cardanol 15:1 concentration: 23.26 ppm
  Cardanol 15:2 Composition (%): 3.09%
  Cardanol 15:2 concentration: 9.45 ppm
  Cardanol 15:3 Composition (%): 6.88%
  Cardanol 15:3 concentration: 21.05 ppm
[3]; [10]
  Anacardic Acid 15:1 Composition (%): 27.63%
  Anacardic Acid 15:1 concentration: 61.63 ppm
  Anacardic Acid 15:2 Composition (%): 11.56%
  Anacardic Acid 15:2 concentration: 25.79 ppm
  Anacardic Acid 15:3 Composition (%): 26.75%
  Anacardic Acid 15:3 concentration: 59.67 ppm
  Cardanol 15:1 Composition (%): 15.11%
  Cardanol 15:1 concentration: 33.70 ppm
  Cardanol 15:2 Composition (%): 5.60%
  Cardanol 15:2 concentration: 12.49 ppm
  Cardanol 15:3 Composition (%): 13.34%
  Cardanol 15:3 concentration: 29.75 ppm
[3]; 1% by weight
  inhibition of the decarboxylation: moderate inhibition
[3]; [11]
  Anacardic Acid 15:1 Composition (%): 35.11%
  Anacardic Acid 15:1 concentration: 107.38 ppm
  Anacardic Acid 15:2 Composition (%): 14.05%
  Anacardic Acid 15:2 concentration: 42.98 ppm
  Anacardic Acid 15:3 Composition (%): 33.26%
  Anacardic Acid 15:3 concentration: 101.71 ppm
  Cardanol 15:1 Composition (%): 7.60%
  Cardanol 15:1 concentration: 23.26 ppm
  Cardanol 15:2 Composition (%): 3.09%
  Cardanol 15:2 concentration: 9.45 ppm
  Cardanol 15:3 Composition (%): 6.88%
  Cardanol 15:3 concentration: 21.05 ppm
[3]; [12]
  Anacardic Acid 15:1 Composition (%): 29.16%
  Anacardic Acid 15:1 concentration: 101.34 ppm
  Anacardic Acid 15:2 Composition (%): 11.39%
  Anacardic Acid 15:2 concentration: 39.59 ppm
  Anacardic Acid 15:3 Composition (%): 27.51%
  Anacardic Acid 15:3 concentration: 95.61 ppm
  Cardanol 15:1 Composition (%): 14.21%
  Cardanol 15:1 concentration: 49.37 ppm
  Cardanol 15:2 Composition (%): 5.34%
  Cardanol 15:2 concentration: 18.56 ppm
  Cardanol 15:3 Composition (%): 12.39%
  Cardanol 15:3 concentration: 43.07 ppm
[3]; 5% by weight
  inhibition of the decarboxylation: significant inhibition
